“Also recorded” adds a separate entry of the source.
Assays:
[1] = Body weight of 6-OHDA lesioned rats under chronic gliptin treatment; format: in vivo, rat; conditions: 12 mg/kg daily from day 7 after lesioning, one day before and 28 days after lesioning
Procedure: Gliptin treatment was initiated either prior to or after 6-OHDA lesioning (early and delayed treatment, respectively) as follows. […] Specifically for drug admixture into diet, drug was solubilized in 100% ETOH that was then added to the 16.2 g of food chow. Thereafter, the ETOH was evaporated off. […] Animals were weighed twice weekly and the amount of drug added to the chow was modified accordingly to maintain the daily required dose. […] Specifically, the 10 mg/kg oral daily drug dose in our rat studies is equivalent to the routine human daily oral dose (100 mg in a 65 kg human) of these gliptins used in T2DM, and the 30 mg/kg rat dose is equivalent to a threefold higher dose that is well-tolerated in humans.

[2] = system: 6-OHDA unilateral medial forebrain bundle lesioned rat; test: Tyrosine hydroxylase (TH) immunoreactivity in striatum and SNc of 6-OHDA lesioned rats; format: in vivo
Procedure: treatment was initiated either prior to or after 6-OHDA lesioning (early and delayed treatment, respectively) as follows. (1) Early treatment: […] An estimated dose for a 250-g rat under this treatment was 10 mg/kg/day. (2) Delayed treatment: […] An estimated, clinically relevant, dose for a 250 g rat under this treatment was thus 30 mg/kg/day. Specifically for drug admixture into diet, drug was solubilized in 100% ETOH that was then added to the 16.2 g of food chow. Thereafter, the ETOH was evaporated off. […] Animals were weighed twice weekly and the amount of drug added to the chow was modified accordingly to maintain the daily required dose. […] Specifically, the 10 mg/kg oral daily drug dose in our rat studies is equivalent to the routine human daily oral dose (100 mg in a 65 kg human) of these […] used in T2DM, and the 30 mg/kg rat dose is equivalent to a threefold higher dose that is well-tolerated in humans. Following the exact same protocol described in Yin et al., 2012 [34] and Li et al., 2009 [35], anesthetized rats were injected i.c.v. with PF-00734,200 (15.4 nmole in 20 μL sterile physiological saline (n = 6)) or vehicle (sterile physiological saline, 20 μL (n = 8)) using a 25 μL Hamilton syringe at 10 min prior to 6-OHDA lesioning (Supplemental Fig. 2). The coordinates for the i.c.v. injection were 0.8 mm posterior to bregma, 1.2 mm lateral (Left) to midline, and 3.7 mm ventral to the dural surface. The rate of infusion (4 μL/min) was adjusted by a microprocessor-controlled injector mounted to the stereotaxic frame (UMP4; World Precision Instruments, Sarasota, FL, USA). The needle was slowly removed after 2 min upon completion of the injection. Following the exact same protocol described in Yin et al., 2012 [34] and Harvey et al. 2004 [36], anesthetized rats were subjected to a 6-OHDA unilateral medial forebrain bundle lesion. Briefly, 6-OHDA (2.27 μg/μL × 5 μL in 0.9% NaCl containing 0.2 mg/ml ascorbic acid) was unilaterally injected into the medial forebrain bundle (-4.4 mm AP, 1.2 mm ML relative to bregma and 8.4 mm below skull) over 4 min through a syringe pump (Micro 4, WPI, Sarasota, FL), as approved under National Health Research Institutes, Taiwan, Protocol # 102,068-A; 102,102-A. Following this procedure, all animals were monitored daily for adverse signs of health for 1 week (in line with the approved protocols). BrdU and TH localization was determined by immunohistochemistry. Serial sections of the entire brain were cut at 30 μm thickness by cryostat. One series from every sixth section was stained for TH. To control for staining variability, specimens from all experimental groups were included in every batch and reacted together in a net well tray under the same conditions. Sections were rinsed in 0.1 M phosphate buffer (PB), blocked with 4% bovine serum albumin (BSA) and 0.3% Triton x-100 in 0.1 M PB. Sections were then incubated in a primary antibody solution mouse monoclonal anti-TH diluted in 4% BSA and 0.3% Triton x-100 in 0.1 M PB, concentration 1:100 (Chemicon, Temecula, CA) and polyclonal anti-BrdU (1:500, Millipore, MA, USA) for 17-19 h at 4 °C. Sections were then rinsed in 0.1 M PB and incubated in secondary antibodies for 1 h, followed by incubation for 1 h with avidin-biotin-horseradish peroxidase complex. Thereafter, sections were mounted on slides, and coverslipped. TH and BrdU immunoreactivity was examined under a fluorescent microscope. Sections were incubated without primary antibody as a control and observers were blinded as to treatment groups. TH immunoreactivity and BrdU cell number in striatum were averaged from 3 brain sections with visible anterior commissure in each animal. TH immunoreactivity in SNc was measured every 6th Sect. (30 μm per each section) throughout the extent of midbrain. […] volume was analyzed using Cavalieri's method.

[3] = system: TNF-α, IL-6, Iba-1 and GFAP; test: Neuroinflammatory measures in brain (TNF-α, IL-6 ELISA; Iba-1, GFAP Western blot); format: in vivo, rat; conditions: 30 mg/kg daily p.o. day 7 to 45; day 45
Procedure: To quantify rat brain cytokine levels, brain tissues were homogenized in TPER (Tissue Protein Extraction Reagent) (ThermoFisher Scientific) using a Biomasher Homogenizer. Inhibitors of phosphatase and protease were added into the TPER to prevent protein degradation. Tissues were then sonicated for 10 pulses and centrifuged at 10,000 g for 10 min at 4 °C. The supernatant was used to measure brain cytokine levels using rat TNF-α ELISA kits from e-Bioscience (San Diego, CA, USA) and rat IL-6 ELISA kits from Biolegend (San Diego, CA, USA). The final results were normalized to protein content, as measured by BCA (bicinchoninic acid) assay. Brain tissue Iba-1 and GFAP levels were quantified by Western blot (Iba-1 and GFAP antibodies Santa Cruz Biotechnology, Inc.) and used in 1:100 dilution).

[4] = delayed treatment 30 mg/kg daily p.o. from day 7, day 21
[5] = early treatment 10 mg/kg daily p.o.
[6] = early treatment 10 mg/kg daily p.o., normalized to non-lesioned side, day 35

| SMILES | Body weight in 6-OHDA lesioned rats [1] | TH cell density in the lesioned SNc vs vehicle [2, 4] | TH pixel density in the lesioned striatum vs vehicle [2, 4] | TH immunoreactivity in the lesioned side SNc vs vehicle [2, 5] | TH immunoreactivity in the non-lesioned side SNc [2, 5] | TH pixel density in the lesioned striatum vs vehicle [2, 6] | TH immunohistochemistry in striatum and SNc vs vehicle ([2]; i.c.v. 15.4 nmole 10 min prior to 6-OHDA lesioning) | GFAP level on the lesioned side of brain (striatum) vs vehicle [3] | IL-6 level on the lesioned side of brain (striatum) vs vehicle [3] | Iba1 level on the lesioned side of brain (striatum) vs vehicle [3] | TNF-α level on the lesioned side of brain (striatum) vs vehicle [3] |
| --- | --- | --- | --- | --- | --- | --- | --- | --- | --- | --- | --- |
| O=C([C@@H]1C[C@H](N2CCN(c3ncccn3)CC2)CN1)N1CCC(F)(F)C1 [PF-00734,200, Gosogliptin] | did not alter body weight | significantly increased | a trend, but not a statistically significant | significantly increased | did not alter | significantly increased | lack of neuroprotection; also recorded: no different from similarly vehicle-treated animals | reduced levels | reduced levels | reduced levels | reduced levels |
| N[C@@H](CC(=O)N1CCn2c(nnc2C(F)(F)F)C1)Cc1cc(F)c(F)cc1F [Sitagliptin] | did not alter body weight | significantly increased | significantly increased | significantly increased | did not alter | significantly increased |  | reduced levels | reduced levels | reduced levels | reduced levels |

Reference: PMC11336009 (GeroScience, 2024)
